# Experiments:
# [1] = Rotarod test (motor coordination); type: in vivo; conditions: male, Swiss albino (CD-1), mouse, in vivo, ip, mice
# Method: (§1) All procedures were carried out in accordance with applicable Polish and international guidelines on the ethics of animal testing, after obtaining appropriate institutional approval. The substances were administered intraperitoneally (i.p.), in 1% aqueous solution of Tween, as single injections with a volume of 10 ml/kg, 30 minutes before the given test. Screening was performed on groups consisted of 4 mice. […] All tests were carried out based on the procedures described in the specialist literature.
# Mice were trained the day before the actual experiment. They were placed individually on a 2 cm diameter rod rotating at 10 revolutions per minute (rpm). During each training session, the animals remained on the rod for 3 minutes. The experiment was carried out 30 minutes after administration of the compounds. Motor coordination was tested at the speed of the rotating bar: 10 rpm during 60 seconds. Motor impairments were defined as the inability to remain on the rotating rod for 1 min.
# (§2) To perform a statistical evaluation of the results, one-way ANOVA variance analysis and Dunnett's post hoc test (multiple comparison test) were used. The value at the significance level p<0.05 was considered statistically significant.
# [2] = tested on: male Swiss albino mice (CD-1); assay: Maximal electroshock seizure test (MES); type: in vivo; conditions: 0.5 h, mice; for ED50 / responders at 100 mg/kg: Mus musculus, ip; for responders at 100 mg/kg: read-out: MES: number of mice protected/number of mice tested (converted)
# Method: (§3) The male Swiss albino mice (CD-1) weighing 18-26 g were used. All procedures were carried out in accordance with applicable Polish and international guidelines on the ethics of animal testing, after obtaining appropriate institutional approval. The substances were administered intraperitoneally (i.p.), in 1% aqueous solution of Tween, as single injections with a volume of 10 ml/kg, 30 minutes before the given test. Screening was performed on groups consisted of 4 mice. The average effective dose (ED50) in given test and toxic dose in the rotarod test (TD50) was estimated based on the results obtained in 3-4 groups of animals consisting of 6 mice. All tests were carried out based on the procedures described in the specialist literature.
# In the MES test, the seizures were induced by an electrical stimulus lasting of 0.2 s duration, 500 V voltage and 25 mA intensity. The electrical stimuli was generated using an electric shock generator (Rodent shocker, Type 221, Hugo Sachs Elektronik, Germany) and delivered to the animal using electrodes placed on the auricles. The study was conducted 30 minutes after intraperitoneal administration of the compounds at various doses. During the experiment, the number of animals that experienced a seizure episode in the form of tonic extension of the hind limbs was counted (Kamiński, K.; Rapacz, A.; Łuszczki, J. J.; Latacz, G.; Obniska, J.; Kieć-Kononowicz, K.; Filipek, B. Bioorg. Med. Chem. 2015, 23, 2548-2561; Castel-Branco, M. M.; Alves, G. L.; Figueiredo, I. V.; Falcão, A. C.; Caramona, M. M. Methods Find. Exp. Clin. Pharmacol. 2009, 31, 101-106).
# as §2
# [3] = tested on: male Swiss albino mice (CD-1); assay: Psychomotor seizure test 6 Hz (44 mA); type: in vivo; conditions: 0.5 h, mice; for 6 Hz (44 mA): number of mice protected/number of mice tested: screening, 100 mg/kg i.p.
# Method: as §1
# In the 6 Hz test, seizures were induced by an electric stimulus of 32 mA and/or 44 mA and a frequency of 6 pulses per second. […] Before starting the test, the eye surface was gently moistened with a solution of local anesthetic (1% lidocaine solution). The study was conducted 30 minutes after intraperitoneal administration of the compounds at various doses. An electrical pulse was delivered continuously for a period of 3 seconds, followed by observation of the animal for a period of 10 seconds. During this time, immobility or stun associated with rearing, forelimb clonus, twitching of the vibrissae and Straub's tail were observed. These symptoms persist throughout the observation period, indicating the occurrence of psychomotor seizures in mice.
# as §2
# [4] = tested on: male Swiss albino mice (CD-1); assay: Subcutaneous pentylenetetrazole seizure test (scPTZ); type: in vivo; conditions: 0.5 h, mice
# Method: as §3
# In the scPTZ test, seizures were induced by subcutaneous administration of pentylenetetrazole (PTZ) at a dose of 100 mg/kg. This caused clonic seizures with accompanying loss of the righting reflex. Test compounds were administered 30 minutes before the experiment. After PTZ administration, the animals were placed individually in transparent containers and observed for a period of 30 minutes for the occurrence of clonic seizures. During this time, the latency of the first onset of clonic seizures, defined as clonus of the whole body lasting at least 3 seconds with loss of the righting reflex and the number of seizure episodes during the test were noted and compared with control group. The absence of clonic convulsions within the observed time period was interpreted as the compound's ability to protect against PTZ-induced seizures (Ferreri, G.; Chimirri, A.; Russo, E.; Gitto, R.; Gareri, P.; De Sarro, A.; De Sarro, G. Pharmacol. Biochem. Behav. 2004, 77, 85-94; Łączkowski, K.; Sałat, K.; Misiura, K.; Podkowa, A.; Malikowska, N. J. Enzyme Inhib. Med. Chem. 2016, 31, 1576-82).
# as §2
# [5] = tested on: male Swiss albino mice (CD-1); assay: Psychomotor seizure test 6 Hz (32 mA); type: in vivo; conditions: Mus musculus, ip, 0.5 h, mice; for responders at 100 mg/kg: screening, 100 mg/kg i.p., read-out: 6 Hz (32 mA): number of mice protected/number of mice tested (converted)
# Method: as §3
# In the 6 Hz test, seizures were induced by an electric stimulus of 32 mA and/or 44 mA and a frequency of 6 pulses per second. An electrical pulse was generated using an electric shock generator (ECT Unit 57800; Ugo Basile, Gemonio, Italy) and delivered to the animal using ocular electrodes. Before starting the test, the eye surface was gently moistened with a solution of local anesthetic (1% lidocaine solution). The study was conducted 30 minutes after intraperitoneal administration of the compounds at various doses. An electrical pulse was delivered continuously for a period of 3 seconds, followed by observation of the animal for a period of 10 seconds. During this time, immobility or stun associated with rearing, forelimb clonus, twitching of the vibrissae and Straub's tail were observed. These symptoms persist throughout the observation period, indicating the occurrence of psychomotor seizures in mice. Mice resuming normal behavior within 10 s after stimulation were considered as protected (Barton, M. E.; Klein, B. D.; Wolf, H. H.; White, H. S. Epilepsy Res. 2001, 47, 217-227; Wojda, E.; Wlaź, A.; Patsalos, P. N.; Łuszczki, J. J. Epilepsy Res. 2009, 86, 163-174).
# as §2
# [6] = Metabolic stability in human liver microsomes; type: in vitro ADME
# Method: Metabolic stability. The metabolic stability of compound 6 was evaluated using human liver microsomes (HLMs). Internal clearance values CLint were calculated by monitoring changes in compound concentration in the presence of microsomes per unit of time, according to the procedure proposed by Obach R. S. (Obach, R. S. Drug Metab. Dispos. 1999, 27, 1350-1359).
# Metabolic stability tests—methodology. Metabolic stability studies for compound 6 were performed using HLMs (Promega, Madison, WI, USA). For this purpose, 10 μL of compound 6 at a concentration of 1000 μM was diluted with 132 μL with tris-HCl buffer (100 mM, pH 7.4), followed by the addition of 8 μL of appropriate microsomes. The reaction mixture was preincubated at 37° C. for 5 minutes, followed by the addition of 50 μL of NADPH Regeneration System, supplied by Promega (Madison, WI, USA). After mixing, the whole mixture was incubated at 37° C. for 120 minutes. To complete the reaction, 200 μL of cold methanol was added to the tubes and centrifuged. The supernatant was subjected to UPLC/MS analysis, including fragmentation analysis. Four mixtures of 6 with HLMs were prepared to determine the internal clearance CLint. Each of these reactions was completed at a different time point, after 5, 15, 30 and 45 min, by the addition of cold methanol containing 50 μM internal standard. Then, according to literature guidelines (Obach, R. S. Drug Metab. Dispos. 1999, 27, 1350-1359), based on the plot of the relationship between the height of the peak from 6 and the height of the internal standard, the regression equation was determined and the reaction rate constant k was calculated. Then the constant k was substituted to equation (1).
# The calculated t1/2 value was then substituted into equation (2): […]
SMILES,TD50 at 0.5 h [1] [mg/kg],melting point [°C],ED50 [2] [mg/kg],"responders at 100 mg/kg ([2]; screening, 100 mg/kg i.p.) [%]","MES: number of mice protected/number of mice tested ([2]; screening, 100 mg/kg i.p.)",6 Hz (44 mA): number of mice protected/number of mice tested [3],"ED50 ([4]; Mus musculus, ip) [mg/kg]","responders at 100 mg/kg ([4]; Mus musculus, ip, screening, 100 mg/kg i.p., read-out: scPTZ: number of mice protected/number of mice tested (converted)) [%]","scPTZ: number of mice protected/number of mice tested ([4]; screening, 100 mg/kg i.p., 100 mg/kg)",ED50 [5] [mg/kg],responders at 100 mg/kg [5] [%],"metabolites found by UPLC after incubation with HLMs ([6]; 120 min incubation, UPLC/MS)","CLint scaled at 50 µM ([6]; human, human liver microsomes, pH 7.4, incubation with HLMs, read-out: internal clearance CLint) [mL/min/kg]","ED50 ([3]; Mus musculus, ip) [mg/kg]","scPTZ: number of mice protected/number of mice tested ([4]; screening, 100 mg/kg i.p.)"
"O=C(C(c1ccccc1)N1C(=O)CCC1=O)N1CCC(c2cccc(C(F)(F)F)c2)CC1 (racemic) [Compound 19, 1-(2-Oxo-1-phenyl-2-(4-(3-(trifluoromethyl)phenyl)piperidin-1-yl)ethyl)pyrrolidine-2,5-dione]",254,100.1 to 101.5,81.8,100,¾,2/4,< 100,100,¾,41,100,–,–,–,–
"O=C([C@@H](c1ccccc1)N1C(=O)CCC1=O)N1CCN(c2cccc(C(F)(F)F)c2)CC1 [(R)-6, (R)-1-(2-Oxo-1-phenyl-2-(4-(3-(trifluoromethyl)phenyl)piperazin-1-yl)ethyl) pyrrolidine-2,5-dione]",468,–,36,100,–,¾,54.8,–,–,39.1,100,two metabolites,2.4,115,¾

# — patent publication US12139458B2, “(2,5-dioxopyrrolidin-1-yl)(phenyl)-acetamide derivatives and their use in the treatment of neurological diseases” (UNIWERSYTET JAGIELLONSKI, priority 2019, dated 2024)
